Reference: patent US10526352B2, “Tricyclic benzoxaborole compounds and uses thereof” (GlaxoSmithKline Intellectual Property (No.2) Limited, priority 2013, dated 2020)
≈ marks a conversion by molar mass, not a printed value. Like-named read-outs stand apart in the source and are kept apart here.

Assays:
E. coli K12 = assay: General antimicrobial activity assay (CLSI broth microdilution); assay type: cell-based, Escherichia coli
Procedure: (§1) Whole-cell antimicrobial activity was determined by broth microdilution using the Clinical and Laboratory Standards Institute (CLSI) recommended procedure, Document M7-A7, “Methods for Dilution Susceptibility Tests for Bacteria that Grow Aerobically”.

E. coli K12 tolC::Tn10 = assay: as above; assay type: cell-based, Escherichia coli
Procedure: as §1

P. aeruginosa PA01 = assay: as above; assay type: cell-based, Pseudomonas aeruginosa
Procedure: as §1

[1] = system: M. tuberculosis standard strain Mtb H37Rv; assay: MIC determination against mycobacteria (resazurin, Middlebrook 7H9); assay type: cell-based, Mycobacterium tuberculosis
A. baumannii ATCC 17978 = assay: General antimicrobial activity assay (CLSI broth microdilution); assay type: cell-based, Acinetobacter baumannii
Procedure: as §1

[2] = system: M. tuberculosis clinical isolates; assay: MIC against clinical strains (BACTEC MGIT 960 System); assay type: cell-based; details: Mycobacterium tuberculosis
[3] = Mycobacterium tuberculosis, H37RV, read-out: Mtb H37Rv MIC (B)
[4] = HepG2 Tox50 (A) / Mtb H37Rv MIC (B)
[5] = Mycobacterium tuberculosis, H37RV; read-out: Mtb H37Rv MIC (B)

SMILES: NCC1OB2OCCOc3cccc1c32 (racemic) [Example C2-H, reference compound]
- MIC: E. coli K12 (E. coli K12): 2 µg/mL (≈ 9.76 µM)
- MIC: E. coli K12 tolC::Tn10 (E. coli K12 tolC::Tn10): 4 µg/mL (≈ 19.5 µM)
- MIC: P. aeruginosa PA01 (P. aeruginosa PA01): 2 µg/mL (≈ 9.76 µM)
- MIC [1, 3]: 1.88 µM (≈ 0.385 µg/mL)
- Selectivity Index (A/B) (HepG2 cells; [4]): >26
- HepG2 cell 48 h Tox50 (A) (HepG2 cells; human): >50 µM
- MIC: A. baumannii ATCC 17978 (A. baumannii ATCC 17978): 2 µg/mL (≈ 9.76 µM)

SMILES: C[C@@]1(CO)COc2ccc(Cl)c3c2B(OC3CN)O1 (single isomer, unassigned) [Example 14, ((2S, 8R or 2R, 8S)-2-(aminomethyl)-3-chloro-8-methyl-7,8-dihydro-2H-1,6,9-trioxa-9a-borabenzo[cd]azulen-8-yl)methanol]
- MIC [1, 3]: 1.25 µM (≈ 0.354 µg/mL)
- Selectivity Index (A/B) (HepG2 cells; [4]): >4
- HepG2 cell 48 h Tox50 (A) (HepG2 cells; human): >50 µM

SMILES: Cl.NCC1OB2OCCOc3ccc(Br)c1c32 (centres unmarked) [Example 1, 3-bromo-7,8-dihydro-2H-1,6,9-trioxa-9a-borabenzo[cd]azulen-2-yl)methanamine Hydrochloride]
- MIC [1, 3]: 0.18 µM

SMILES: Cl.NCC1OB2OCCOc3ccc(Br)c1c32 (centres unmarked) [Example 1]
- MIC: E. coli K12 (E. coli K12): >64 µg/mL
- MIC: E. coli K12 tolC::Tn10 (E. coli K12 tolC::Tn10): >64 µg/mL
- MIC: P. aeruginosa PA01 (P. aeruginosa PA01): >64 µg/mL
- HepG2 cell 48 h Tox50 (A) (HepG2 cells): >50 µM
- Selectivity Index (A/B) (HepG2 cells; hydrochloride): >277
- MIC: A. baumannii ATCC 17978 (A. baumannii ATCC 17978): >64 µg/mL

SMILES: Cl.NCC1OB2OCCOc3ccc(Cl)c1c32 (centres unmarked) [Example 3, 3-chloro-7,8-dihydro-2H-1,6,9-trioxa-9a-borabenzo[cd]azulen-2-yl)methanamine hydrochloride]
- MIC [1, 3]: 0.47 µM

SMILES: Cl.NCC1OB2OCCOc3ccc(Cl)c1c32 (centres unmarked) [Example 3]
- MIC: E. coli K12 (E. coli K12): >64 µg/mL
- MIC: E. coli K12 tolC::Tn10 (E. coli K12 tolC::Tn10): >64 µg/mL
- MIC: P. aeruginosa PA01 (P. aeruginosa PA01): >64 µg/mL
- HepG2 cell 48 h Tox50 (A) (HepG2 cells): >50 µM
- Selectivity Index (A/B) (HepG2 cells; hydrochloride): >106
- MIC: A. baumannii ATCC 17978 (A. baumannii ATCC 17978): >64 µg/mL

SMILES: Cl.NCC1OB2OCCOc3ccc(F)c1c32 (centres unmarked) [Example 5, (3-fluoro-7,8-dihydro-2H-1,6,9-trioxa-9a-borabenzo[cd]azulen-2-yl)methanamine hydrochloride)]
- MIC [1, 3]: 0.6 µM

SMILES: Cl.NCC1OB2OCCOc3ccc(F)c1c32 (centres unmarked) [Example 5]
- MIC: E. coli K12 (E. coli K12): 32 µg/mL
- MIC: E. coli K12 tolC::Tn10 (E. coli K12 tolC::Tn10): 64 µg/mL
- MIC: P. aeruginosa PA01 (P. aeruginosa PA01): 4 µg/mL
- MIC: A. baumannii ATCC 17978 (A. baumannii ATCC 17978): >64 µg/mL

SMILES: Cl.NC[C@H]1OB2OCCOc3ccc(I)c1c32 [Example 6, (S)-(3-iodo-7,8-dihydro-2H-1,6,9-trioxa-9a-borabenzo[cd]azulen-2-yl)methanamine hydrochloride]
- MIC [1, 3]: 0.3 µM

SMILES: CC1COc2ccc(Cl)c3c2B(O1)OC3CN.Cl (centres unmarked) [Example 7, (3-chloro-8-methyl-7,8-dihydro-2H-1,6,9-trioxa-9a-borabenzo[cd]azulen-2-yl)methanamine Hydrochloride]
- MIC: E. coli K12 (E. coli K12): >64 µg/mL
- MIC: E. coli K12 tolC::Tn10 (E. coli K12 tolC::Tn10): >64 µg/mL
- MIC: P. aeruginosa PA01 (P. aeruginosa PA01): >64 µg/mL
- MIC [1, 3]: 0.2 µM
- Selectivity Index (A/B) (HepG2 cells): >250
- HepG2 cell 48 h Tox50 (A) (HepG2 cells): >50 µM
- MIC: A. baumannii ATCC 17978 (A. baumannii ATCC 17978): >64 µg/mL

SMILES: CC1COc2ccc(Br)c3c2B(O1)OC3CN.Cl (centres unmarked) [Example 8, (3-bromo-8-methyl-7,8-dihydro-2H-1,6,9-trioxa-9a-borabenzo[cd]azulen-2-yl)methanamine hydrochloride]
- MIC: E. coli K12 (E. coli K12): >64 µg/mL
- MIC: E. coli K12 tolC::Tn10 (E. coli K12 tolC::Tn10): >64 µg/mL
- MIC: P. aeruginosa PA01 (P. aeruginosa PA01): >64 µg/mL
- MIC [1, 3]: 0.3 µM
- Selectivity Index (A/B) (HepG2 cells): >167
- HepG2 cell 48 h Tox50 (A) (HepG2 cells): >50 µM
- MIC: A. baumannii ATCC 17978 (A. baumannii ATCC 17978): >64 µg/mL

SMILES: CC1(C)COc2ccc(Br)c3c2B(OC3CN)O1.Cl (centres unmarked) [Example 9, (3-bromo-8,8-dimethyl-7,8-dihydro-2H-1,6,9-trioxa-9a-borabenzo[cd]azulen-2-yl)methanamine hydrochloride]
- MIC: E. coli K12 (E. coli K12): >64 µg/mL
- MIC: E. coli K12 tolC::Tn10 (E. coli K12 tolC::Tn10): >64 µg/mL
- MIC: P. aeruginosa PA01 (P. aeruginosa PA01): >64 µg/mL
- MIC [1, 3]: 0.3 µM
- HepG2 cell 48 h Tox50 (A) (HepG2 cells): >50 µM
- Selectivity Index (A/B) (HepG2 cells; hydrochloride): >167
- MIC: A. baumannii ATCC 17978 (A. baumannii ATCC 17978): >64 µg/mL

SMILES: CC1(C)COc2ccc(Br)c3c2B(O[C@@H]3CN)O1.Cl [Example 10, (S)-(3-bromo-8,8-dimethyl-7,8-dihydro-2H-1,6,9-trioxa-9a-borabenzo[cd]azulen-2-yl)methanamine Hydrochloride]
- MIC: E. coli K12 (E. coli K12): >64 µg/mL
- MIC: E. coli K12 tolC::Tn10 (E. coli K12 tolC::Tn10): >64 µg/mL
- MIC: P. aeruginosa PA01 (P. aeruginosa PA01): >64 µg/mL
- MIC [1, 3]: 0.16 µM
- MIC: A. baumannii ATCC 17978 (A. baumannii ATCC 17978): >64 µg/mL

SMILES: CC1(C)COc2ccc(Cl)c3c2B(O[C@@H]3CN)O1.Cl [Example 12, (S)-(3-chloro-8,8-dimethyl-7,8-dihydro-2H-1,6,9-trioxa-9a-borabenzo[cd]azulen-2-yl)methanamine Hydrochloride]
- MIC: E. coli K12 (E. coli K12): >64 µg/mL
- MIC: E. coli K12 tolC::Tn10 (E. coli K12 tolC::Tn10): >64 µg/mL
- MIC: P. aeruginosa PA01 (P. aeruginosa PA01): >64 µg/mL
- MIC [1, 3]: 0.08 µM
- MIC: A. baumannii ATCC 17978 (A. baumannii ATCC 17978): >64 µg/mL

SMILES: Cl.NC[C@H]1OB2O[C@H](CO)COc3ccc(F)c1c32 [Example 13, ((2S,8R)-2-(aminomethyl)-3-fluoro-7,8-dihydro-2H-1,6,9-trioxa-9a-borabenzo[cd]azulen-8-yl)methanol Hydrochloride]
- MIC [1, 3]: 0.55 µM
- Selectivity Index (A/B) (HepG2 cells): >10
- HepG2 cell 48 h Tox50 (A) (HepG2 cells): >50 µM

SMILES: C[C@]1(CO)COc2ccc(Cl)c3c2B(OC3CN)O1 (stereo partly drawn) [Example 15, ((2S, 8S, or 2R, 8R)-2-(aminomethyl)-3-chloro-8-methyl-7,8-dihydro-2H-1,6,9-trioxa-9a-borabenzo[cd]azulen-8-yl)methanol]
- MIC [1, 3]: 0.93 µM (≈ 0.264 µg/mL)
- Selectivity Index (A/B) (HepG2 cells; [4]): >50
- HepG2 cell 48 h Tox50 (A) (HepG2 cells; human): >50 µM

SMILES: C[C@@]1(CO)COc2ccc(Br)c3c2B(OC3CN)O1 (stereo partly drawn) [Example 16, ((2S, 8R, or 2R, 8S)-2-(aminomethyl)-3-bromo-8-methyl-7,8-dihydro-2H-1,6,9-trioxa-9a-borabenzo[cd]azulen-8-yl)methanol]
- MIC [1, 3]: 1.25 µM (≈ 0.41 µg/mL)
- Selectivity Index (A/B) (HepG2 cells; [4]): >40
- HepG2 cell 48 h Tox50 (A) (HepG2 cells; human): >50 µM

SMILES: c1cc2c3c(c1)OCCOB3OC2 [Example C1-H, reference compound]
- MIC [1, 5]: 31 µM (≈ 5.46 µg/mL)

SMILES: NCCOc1cccc2c1B(O)OC2 [Example C3-H, reference compound]
- MIC [1, 5]: 62 µM (≈ 12 µg/mL)
- HepG2 cell 48 h Tox50 (A) (HepG2 cells): >50 µM
- Selectivity Index (A/B) (HepG2 cells; [4]): >0.8

SMILES: CCOc1cccc2c1B(O)O[C@@H]2CN [Example C5-H, reference compound]
- MIC [1, 5]: 0.6 µM (≈ 0.124 µg/mL)
- HepG2 cell 48 h Tox50 (A) (HepG2 cells): 1.8 µM
- Selectivity Index (A/B) (HepG2 cells; [4]): 3

SMILES: CC1COc2c(Cl)cc(Cl)c3c2B(O1)OC3CN (centres unmarked) [Example C7-Cl2, reference compound]
- MIC [1, 3]: 2.5 µM (≈ 0.72 µg/mL)
- Selectivity Index (A/B) (HepG2 cells; [4]): >20
- HepG2 cell 48 h Tox50 (A) (HepG2 cells; human): >50 µM

SMILES: CC1(C)COc2c(Cl)ccc3c2B(OC3CN)O1 (centres unmarked) [Example C8-Cl, reference compound]
- MIC [1, 3]: > 5 µM
- Selectivity Index (A/B) (HepG2 cells; [4]): 10
- HepG2 cell 48 h Tox50 (A) (HepG2 cells; human): >50 µM

SMILES: CC1(C)COB2OC(CN)c3c(Cl)ccc(c32)O1 (centres unmarked) [Example C9-Cl, reference compound]
- MIC [1, 3]: 5 µM (≈ 1.34 µg/mL)
- Selectivity Index (A/B) (HepG2 cells; [4]): >10
- HepG2 cell 48 h Tox50 (A) (HepG2 cells; human): >50 µM

SMILES: CC1(C)COB2OC(CN)c3cccc(c32)O1 (centres unmarked) [Example C10-H, reference compound]
- MIC [1, 3]: > 5 µM
- Selectivity Index (A/B) (HepG2 cells; [4]): 10
- HepG2 cell 48 h Tox50 (A) (HepG2 cells; human): >50 µM

SMILES: NC[C@H]1OB2OCCOc3c(Cl)cc(Cl)c1c32 [Example C14-Cl2, reference compound]
- MIC [1, 3]: > 5 µM
- Selectivity Index (A/B) (HepG2 cells; [4]): >10
- HepG2 cell 48 h Tox50 (A) (HepG2 cells; human): >50 µM

SMILES: NC[C@H]1OB2OCCOc3ccc(Cl)c1c32 [Example G4-Cl]
- MIC ([2]; for all of but 1 of the 40 clinical isolate strains tested): < 1 µM
- MIC ([2]; read-out: measured MIC (breakdown), for 1 strain of 97 clinical isolates): ≤ 0.2 µM
- MIC ([2]; read-out: measured MIC (breakdown), for 3 strains of 97 clinical isolates): 0.31 µM (≈ 0.0742 µg/mL)
- MIC ([2]; read-out: measured MIC (breakdown), for 8 strains of 97 clinical isolates (first group)): 0.04 µM (≈ 0.00958 µg/mL)
- MIC ([2]; read-out: measured MIC (breakdown), for 8 strains of 97 clinical isolates (second group)): 0.16 µM (≈ 0.0383 µg/mL)
- MIC ([2]; read-out: measured MIC (breakdown), for 76 strains of 97 clinical isolates): 0.08 µM (≈ 0.0192 µg/mL)
